Assay results published in ChEMBL document CHEMBL4627344, “Synthesis, biological evaluation and virtual screening of some acridone derivatives as potential anticancer agents” (2020).

Columns and labels:
Assay type in all cases: functional
NCI-H460 [1] = assay: Antiproliferative activity against human NCI-H460 cells assessed as inhibition of cell growth at 10 uM measured after 48 hrs by SRB assay relative to control; conditions: NCI-H460, 48 h, read-out: GI
SW-620 [2] = assay: Antiproliferative activity against human SW620 cells assessed as inhibition of cell growth at 10 uM measured after 48 hrs by SRB assay relative to control; conditions: SW-620, 48 h, read-out: GI
SNB-75 [3] = assay: Antiproliferative activity against human SNB75 cells assessed as inhibition of cell growth measured after 48 hrs by SRB assay; conditions: SNB-75, 48 h
A549 [4] = assay: Antiproliferative activity against human A549 cells assessed as inhibition of cell growth at 10 uM measured after 48 hrs by SRB assay relative to control; conditions: A549, 48 h, read-out: GI
NCI/ADR-RES = assay: Antiproliferative activity against human NCI-ADR-RES cells assessed as inhibition of cell growth at 10 uM measured after 48 hrs by SRB assay relative to control; conditions: read-out: GI
CCRF-CEM = assay: Antiproliferative activity against human CCRF-CEM cells assessed as inhibition of cell growth at 10 uM measured after 48 hrs by SRB assay relative to control; conditions: read-out: GI
HCT-15 = assay: Antiproliferative activity against human HCT15 cells assessed as inhibition of cell growth measured after 48 hrs by SRB assay; conditions: HCT-15, 48 h
OVCAR-3 = assay: Antiproliferative activity against human OVCAR3 cells assessed as inhibition of cell growth measured after 48 hrs by SRB assay; conditions: OVCAR-3, 48 h
UO-31 = assay: Antiproliferative activity against human UO31 cells assessed as inhibition of cell growth measured after 48 hrs by SRB assay; conditions: UO-31, 48 h
NCI-H226 [5] = assay: Antiproliferative activity against human NCI-H226 cells assessed as inhibition of cell growth measured after 48 hrs by SRB assay; conditions: NCI-H226, 48 h
RXF 393 = assay: Antiproliferative activity against human RXF393 cells assessed as inhibition of cell growth at 10 uM measured after 48 hrs by SRB assay relative to control; conditions: RXF 393, 48 h, read-out: GI
HT-29 [6] = assay: Antiproliferative activity against human HT-29 cells assessed as inhibition of cell growth at 10 uM measured after 48 hrs by SRB assay relative to control; conditions: HT-29, 48 h, read-out: GI
HOP-62 = assay: Antiproliferative activity against human HOP62 cells assessed as inhibition of cell growth measured after 48 hrs by SRB assay; conditions: HOP-62, 48 h
HL-60(TB) = assay: Antiproliferative activity against human HL-60(TB) cells assessed as inhibition of cell growth measured after 48 hrs by SRB assay; conditions: HL-60, 48 h
HCC 2998 = assay: Antiproliferative activity against human HCC2998 cells assessed as inhibition of cell growth measured after 48 hrs by SRB assay; conditions: HCC 2998, 48 h
NCI-H522 = assay: Antiproliferative activity against human NCI-H522 cells assessed as inhibition of cell growth at 10 uM measured after 48 hrs by SRB assay relative to control; conditions: NCI-H522, 48 h, read-out: GI
ACHN = assay: Antiproliferative activity against human ACHN cells assessed as inhibition of cell growth at 10 uM measured after 48 hrs by SRB assay relative to control; conditions: read-out: GI
SF-295 [7] = assay: Antiproliferative activity against human SF295 cells assessed as inhibition of cell growth measured after 48 hrs by SRB assay; conditions: SF-295, 48 h
NCI-H226 [8] = assay: Antiproliferative activity against human NCI-H226 cells assessed as inhibition of cell growth at 10 uM measured after 48 hrs by SRB assay relative to control; conditions: NCI-H226, 48 h, read-out: GI
A549 [9] = assay: Antiproliferative activity against human A549 cells assessed as inhibition of cell growth measured after 48 hrs by SRB assay; conditions: A549, 48 h
NCI-H460 [10] = assay: Antiproliferative activity against human NCI-H460 cells assessed as inhibition of cell growth measured after 48 hrs by SRB assay; conditions: NCI-H460, 48 h
SNB-75 [11] = assay: Antiproliferative activity against human SNB75 cells assessed as inhibition of cell growth at 10 uM measured after 48 hrs by SRB assay relative to control; conditions: SNB-75, 48 h, read-out: GI
SNB-19 = assay: Antiproliferative activity against human SNB19 cells assessed as inhibition of cell growth measured after 48 hrs by SRB assay; conditions: SNB-19, 48 h
HCT-116 = assay: Antiproliferative activity against human HCT116 cells assessed as inhibition of cell growth at 10 uM measured after 48 hrs by SRB assay relative to control; conditions: HCT-116, 48 h, read-out: GI
BT-549 = assay: Antiproliferative activity against human BT549 cells assessed as inhibition of cell growth measured after 48 hrs by SRB assay; conditions: BT-549, 48 h
EKVX = assay: Antiproliferative activity against human EKVX cells assessed as inhibition of cell growth measured after 48 hrs by SRB assay
SK-MEL-28 = assay: Antiproliferative activity against human SK-MEL-28 cells assessed as inhibition of cell growth measured after 48 hrs by SRB assay; conditions: SK-MEL-28, 48 h
HT-29 [12] = assay: Antiproliferative activity against human HT-29 cells assessed as inhibition of cell growth measured after 48 hrs by SRB assay; conditions: HT-29, 48 h
SW-620 [13] = assay: Antiproliferative activity against human SW620 cells assessed as inhibition of cell growth measured after 48 hrs by SRB assay; conditions: SW-620, 48 h
SK-MEL-5 [14] = assay: Antiproliferative activity against human SK-MEL-5 cells assessed as inhibition of cell growth at 10 uM measured after 48 hrs by SRB assay relative to control; conditions: SK-MEL-5, 48 h, read-out: GI
SF-295 [15] = assay: Antiproliferative activity against human SF295 cells assessed as inhibition of cell growth at 10 uM measured after 48 hrs by SRB assay relative to control; conditions: SF-295, 48 h, read-out: GI
PC-3 = assay: Antiproliferative activity against human PC3 cells assessed as inhibition of cell growth at 10 uM measured after 48 hrs by SRB assay relative to control; conditions: PC-3, 48 h, read-out: GI
SN12C = assay: Antiproliferative activity against human SN12C cells assessed as inhibition of cell growth at 10 uM measured after 48 hrs by SRB assay relative to control; conditions: read-out: GI
SK-MEL-5 [16] = assay: Antiproliferative activity against human SK-MEL-5 cells assessed as inhibition of cell growth measured after 48 hrs by SRB assay; conditions: SK-MEL-5, 48 h
K562 = assay: Antiproliferative activity against human K562 cells assessed as inhibition of cell growth at 10 uM measured after 48 hrs by SRB assay relative to control; conditions: K562, 48 h, read-out: GI
OVCAR-5 = assay: Antiproliferative activity against human OVCAR5 cells assessed as inhibition of cell growth at 10 uM measured after 48 hrs by SRB assay relative to control; conditions: OVCAR-5, 48 h, read-out: GI

Row | Compound | inhibition of growth at 10 µM (NCI-H460 [1]) [%] | inhibition of growth at 10 µM (SW-620 [2]) [%] | GI50 (SNB-75 [3]) [nM] | inhibition of growth at 10 µM (NCI/ADR-RES) [%] | GI50 (HCT-15) [nM] | GI50 (OVCAR-3) [nM] | GI50 (UO-31) [nM] | GI50 (NCI-H226 [5]) [nM] | inhibition of growth at 10 µM (RXF 393) [%] | inhibition of growth at 10 µM (HT-29 [6]) [%] | GI50 (HOP-62) [nM] | GI50 (HL-60(TB)) [nM] | GI50 (HCC 2998) [nM] | inhibition of growth at 10 µM (NCI-H522) [%] | inhibition of growth at 10 µM (ACHN) [%] | GI50 (SF-295 [7]) [nM] | inhibition of growth at 10 µM (NCI-H226 [8]) [%] | GI50 (A549 [9]) [nM] | GI50 (NCI-H460 [10]) [nM] | inhibition of growth at 10 µM (SNB-75 [11]) [%] | further results
1 | O=C1CC(c2ccccc2)Cc2nc3ccc(Br)cc3cc21 (stereo unspecified) | 95.4 | 74.9 | 210 | 82.9 | 528 | 289 | 640 | 2250 | 71.6 | 97.8 | 354 | 214 | 2580 | 104 | 65.7 | 206 | 75.9 | 419 | 344 | 63.4 | inhibition of growth at 10 µM (A549 [4]): 76.2%; inhibition of growth at 10 µM (CCRF-CEM): 91.5%; GI50 (SNB-19): 434 nM; inhibition of growth at 10 µM (HCT-116): 94.4%; GI50 (BT-549): 685 nM; GI50 (EKVX): 756 nM; GI50 (SK-MEL-28): 954 nM; GI50 (HT-29 [12]): 205 nM; GI50 (SW-620 [13]): 360 nM; inhibition of growth at 10 µM (SK-MEL-5 [14]): 97.9%; inhibition of growth at 10 µM (SF-295 [15]): 82.8%; inhibition of growth at 10 µM (PC-3): 68%; inhibition of growth at 10 µM (SN12C): 67.8%; GI50 (SK-MEL-5 [16]): 288 nM; inhibition of growth at 10 µM (K562): 93.9%; inhibition of growth at 10 µM (OVCAR-5): 72.8%
2 | O=C1CC(c2ccccc2)Cc2nc3ccc(Cl)cc3cc21 (stereo unspecified) | 96.7 | 77 | 215 | 92 | 588 | 302 | 489 | 1610 | 78.2 | 95.6 | 428 | 211 | 2890 | 97 | 69.2 | 196 | 79.2 | 420 | 345 | 70.3 | inhibition of growth at 10 µM (A549 [4]): 76.7%; inhibition of growth at 10 µM (CCRF-CEM): 89.6%; GI50 (SNB-19): 425 nM; inhibition of growth at 10 µM (HCT-116): 94.5%; GI50 (BT-549): 500 nM; GI50 (EKVX): 607 nM; GI50 (SK-MEL-28): 1690 nM; GI50 (HT-29 [12]): 271 nM; GI50 (SW-620 [13]): 370 nM; inhibition of growth at 10 µM (SK-MEL-5 [14]): 114%; inhibition of growth at 10 µM (SF-295 [15]): 103%; inhibition of growth at 10 µM (PC-3): 72.3%; inhibition of growth at 10 µM (SN12C): 71.8%; GI50 (SK-MEL-5 [16]): 203 nM; inhibition of growth at 10 µM (K562): 79.3%; inhibition of growth at 10 µM (OVCAR-5): 73.6%
3 | O=C1CC(c2ccccc2)Cc2nc3c(Br)cc(Br)cc3cc21 (stereo unspecified) | 97.7 | 77.6 | 199 | 113 | 312 | 30.2 | 79.5 | 241 | 70 | 91.7 | 180 | 226 | 282 | 91.5 | 70.3 | 196 | 85.9 | 79.2 | 42.3 | 64.8 | GI50 (SNB-19): 406 nM; inhibition of growth at 10 µM (HCT-116): 93.8%; GI50 (BT-549): 541 nM; GI50 (EKVX): 391 nM; GI50 (SK-MEL-28): 478 nM; GI50 (HT-29 [12]): 233 nM; GI50 (SW-620 [13]): 83.9 nM; inhibition of growth at 10 µM (SK-MEL-5 [14]): 118%; inhibition of growth at 10 µM (SF-295 [15]): 132%; inhibition of growth at 10 µM (PC-3): 77.4%; inhibition of growth at 10 µM (SN12C): 60.5%; GI50 (SK-MEL-5 [16]): 298 nM; inhibition of growth at 10 µM (K562): 86.8%; inhibition of growth at 10 µM (OVCAR-5): 52.9%
